Laboratory results taken from paper PMC10786919, “Design-rules for stapled peptides with in vivo activity and their application to Mdm2/X antagonists” (Nature Communications, 2024).
In brackets after ≈: the same amount, converted by molar mass. Like-named read-outs stand apart in the source and are kept apart here. Positions of bridges follow the written chain, without caps; N, C: chain ends. Non-standard residues stand in square brackets, D forms with d. Residues, ends and D or L forms follow the SMILES beside them. Phe(3-CF3) = N[C@@H](Cc1cccc(C(F)(F)F)c1)C(=O)O; Lys(N3) = [N-]=[N+]=NCCCC[C@H](N)C(=O)O; R8 = C=CCCCCCC[C@@](C)(N)C(=O)O; Cba = N[C@@H](CC1CCC1)C(=O)O; S5 = C=CCCC[C@](C)(N)C(=O)O; hSer = N[C@@H](CCO)C(=O)O; Aib = CC(C)(N)C(=O)O; βAla = NCCC(=O)O; Sar = CNCC(=O)O

What was measured:
[1] = test system: Ca Ski cell line; settings: 72 h
Protocol: (§1) The medium for CellSensor™ p53RE-bla HCT-116 cells was McCoy’s 5 A Medium (GIBCO16600-002) supplied with 10% FBS (Hyclone, SH30406.05), 100 U/100ug/ml of Pen/Strep (SolarBio, P1400) and 5 μg/ml of blasticidin (GIBCO, A11139). The medium for Ca Ski cells was RPMI1640 (Hyclone, SH3080901B) supplied with 10% FBS and 100 U/100ug/ml of Pen/Strep. All cells were kept in humidified incubators with 5% CO2 at 37 °C. Culture media was changed after one day of subculturing and cells were passed again when there was 70–80% confluence. One day before the assay, the cells were trypsinized, collected, counted and viability was determined. […] The plates were kept in humidified incubators with 5% CO2 at 37 °C overnight. Compounds were prepared as a 10 point, 3x serial dilution in 100% DMSO, starting from a top concentration of 10 mM. […] At the end of the incubation the assay plate was equilibrated at room temperature for approximately 30 minutes prior to the addition of 25 uL of CellTiter-Glo® 2.0 Reagent. The assay plate was mixed for 2 minutes on an orbital shaker to induce cell lysis. Next, the plate was incubated at room temperature for 10 minutes to stabilize the luminescent signal prior to recording the luminescence on a plate reader.

[2] = test system: CellSensor p53RE-bla HCT-116 Cell Line; settings: 72 h
Protocol: as §1

[3] = Solubility assay (kinetic solubility, PBS pH 7); format: physicochemical; settings: for solubility kinetic: pH 7, aqueous buffer, kinetic from dmso stock, read-out: Solubility
Summary of the method: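 Std: 10 mM stock → 100 µM in ACN/MeOH/DMSO (10:80:10). Sol. [µM] = (sample peak area / std peak area) × std conc.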

[4] = Experimental LogD (partition coefficient); settings: for logD: not stated, Partition Coeff LogD
[5] = Lactate dehydrogenase (LDH) release assay; format: cell-based
Summary of the method: (§2)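 A p53 β-lactamase reporter HCT116 line, 8000 cells per well, is exposed to test compounds at 0.5% final DMSO and scored for LDH leakage.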

[6] = in vitro; settings: Nanoclick permeability assay EC50
Summary of the method: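 Azido-peptide permeability was read as loss of NanoBRET signal (donor 450 nm, acceptor 610 nm) after adding NanoBret618-azide at 10 μM final.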

[7] = physchem
[8] = test system: HCT116 cells; test: Lactate dehydrogenase (LDH) release assay; format: cell-based
Summary of the method: as §2

Structure (SMILES) | EC50 [1] [µM] | EC50 [2] [µM] | solubility kinetic ([3]; pH 7, PBS) [µM] | logD [4] | EC50 ([5]; LDH: Cytotoxicity assay EC50) [µM] | cell entry EC50 [6] [µM] | Solubility ([3]; pH 7, PBS) | Partition Coeff LogD [4] | Solubility [3] | EPSA [7] [A^2] | EC50 ([5]; LDH: Cytotoxicity assay: EC50) [µM] | LDH: Cytotoxicity assay: % Effect [8] [%]
CC(=O)N[C@@H](CCCCN=[N+]=[N-])C(=O)NCCC(=O)N[C@@H](CC(C)C)C(=O)N[C@H](C(=O)N[C@@H](Cc1ccccc1)C(=O)N[C@]1(C)CCCCCCC=CCCC[C@@](C)(C(=O)N[C@@H](C)C(=O)N[C@@H](CCO)C(=O)N[C@@H](C)C(=O)N[C@@H](C)C(=O)N[C@@H](C)C(=O)N[C@H](C)C(N)=O)NC(=O)[C@H](CC2CCC2)NC(=O)[C@H](CCC(N)=O)NC(=O)[C@H](C)NC(=O)[C@H](Cc2c[nH]c3ccccc23)NC(=O)[C@H](Cc2ccc(O)cc2)NC(=O)[C@H](CCC(=O)O)NC1=O)[C@@H](C)O [MP-831] (Ac-[Lys(N3)][βAla]LTF[R8]EYWAQ[Cba][S5]A[hSer]AAA[dA]-NH2; staple 6-13) | > 49.8 | 0.428 | 175 (≈ 385 µg/mL) | 3.13 | > 50.7 | > 10 | – | – | – | – | – | –
CC(=O)N[C@@H](CCCCN=[N+]=[N-])C(=O)NCCC(=O)N[C@@H](CC(C)C)C(=O)N[C@H](C(=O)N[C@@H](Cc1ccccc1)C(=O)N[C@]1(C)CCCCCCC=CCCC[C@@](C)(C(=O)N[C@@H](C)C(=O)N[C@@H](C)C(=O)N[C@@H](Cc2ccccc2)C(=O)NC(C)(C)C(=O)N[C@@H](C)C(=O)N[C@@H](C)C(N)=O)NC(=O)[C@H](CC2CCC2)NC(=O)[C@H](CCC(N)=O)NC(=O)[C@H](C)NC(=O)[C@H](Cc2c[nH]c3ccccc23)NC(=O)[C@H](Cc2ccc(O)cc2)NC(=O)[C@H](CCC(=O)O)NC1=O)[C@@H](C)O [MP-801] (Ac-[Lys(N3)][βAla]LTF[R8]EYWAQ[Cba][S5]AAF[Aib]AA-NH2; staple 6-13) | 19.1 | 4.58 | – | – | – | 4.71 | Poorly Behaved | Poorly Behaved | – | – | – | –
CC(=O)N[C@@H](CCCCN=[N+]=[N-])C(=O)NCCC(=O)N[C@@H](CC(C)C)C(=O)N[C@H](C(=O)N[C@@H](Cc1ccccc1)C(=O)N[C@]1(C)CCCCCCC=CCCC[C@@](C)(C(=O)N[C@@H](C)C(=O)N[C@@H](C)C(=O)N[C@@H](C)C(=O)N[C@@H](C)C(=O)N[C@@H](C)C(N)=O)NC(=O)[C@H](CC2CCC2)NC(=O)[C@H](CCC(N)=O)NC(=O)[C@H](C)NC(=O)[C@H](Cc2c[nH]c3ccccc23)NC(=O)[C@H](Cc2ccc(O)cc2)NC(=O)[C@H](CCC(=O)O)NC1=O)[C@@H](C)O [MP-685] (Ac-[Lys(N3)][βAla]LTF[R8]EYWAQ[Cba][S5]AAAAA-NH2; staple 6-13) | 22.8 | 9.55 | – | – | > 50.7 | > 10 | – | – | – | – | – | –
CC(=O)N[C@@H](CCCCN=[N+]=[N-])C(=O)NCCC(=O)N[C@@H](CC(C)C)C(=O)N[C@H](C(=O)N[C@@H](Cc1ccccc1)C(=O)N[C@]1(C)CCCCCCC=CCCC[C@@](C)(C(=O)N[C@@H](CCO)C(=O)N[C@@H](CCO)C(=O)N[C@@H](Cc2ccccc2)C(=O)N[C@@H](CCO)C(=O)N[C@@H](CCO)C(=O)N[C@@H](Cc2ccccc2)C(N)=O)NC(=O)[C@H](CC2CCC2)NC(=O)[C@H](CCC(N)=O)NC(=O)[C@H](C)NC(=O)[C@H](Cc2c[nH]c3ccccc23)NC(=O)[C@H](Cc2ccc(O)cc2)NC(=O)[C@H](CCC(=O)O)NC1=O)[C@@H](C)O [MP-802] | – | 4.58 | – | 3.08 | > 50.7 | 9.16 | – | – | P.B. | – | – | –
CC(=O)N[C@@H](CCCCN=[N+]=[N-])C(=O)NCCC(=O)N[C@@H](CC(C)C)C(=O)N[C@H](C(=O)N[C@@H](Cc1ccccc1)C(=O)N[C@]1(C)CCCCCCC=CCCC[C@@](C)(C(=O)N[C@@H](CO)C(=O)N[C@@H](C)C(=O)N[C@@H](C)C(N)=O)NC(=O)[C@H](CC2CCC2)NC(=O)[C@H](CCC(N)=O)NC(=O)[C@H](C)NC(=O)[C@H](Cc2cccc(C(F)(F)F)c2)NC(=O)[C@H](Cc2ccc(O)cc2)NC(=O)[C@H](CCC(=O)O)NC1=O)[C@@H](C)O [MP-030] (Ac-[Lys(N3)][βAla]LTF[R8]EY[Phe(3-CF3)]AQ[Cba][S5]SAA-NH2; staple 6-13) | – | – | – | – | – | 0.408 | Poorly Behaved | Poorly Behaved | – | 192 | > 50.6 | 8.06
CC(=O)N[C@@H](CCCCN=[N+]=[N-])C(=O)NCCC(=O)N[C@@H](CC(C)C)C(=O)N[C@H](C(=O)N[C@@H](Cc1ccccc1)C(=O)N[C@]1(C)CCCCCCC=CCCC[C@@](C)(C(=O)N[C@@H](C)C(=O)N[C@@H](C)C(=O)N[C@H](C)C(=O)N[C@@H](C)C(=O)N[C@@H](C)C(=O)N[C@H](C)C(N)=O)NC(=O)[C@H](CC2CCC2)NC(=O)[C@H](CCC(N)=O)NC(=O)[C@H](C)NC(=O)[C@H](Cc2c[nH]c3ccccc23)NC(=O)[C@H](Cc2ccc(O)cc2)NC(=O)[C@H](CCC(=O)O)NC1=O)[C@@H](C)O [MP-425] (Ac-[Lys(N3)][βAla]LTF[R8]EYWAQ[Cba][S5]AA[dA]AA[dA]-NH2; staple 6-13) | 47.3 | 1.27 | 185 (≈ 401 µg/mL) | – | > 50.7 | – | – | – | – | – | – | –
CC(=O)N[C@@H](CCCCN=[N+]=[N-])C(=O)NCCC(=O)N[C@@H](CC(C)C)C(=O)N[C@H](C(=O)N[C@@H](Cc1ccccc1)C(=O)N[C@]1(C)CCCCCCC=CCCC[C@@](C)(C(=O)N[C@@H](CO)C(=O)N[C@@H](C)C(=O)N[C@@H](C)C(N)=O)NC(=O)[C@H](CC2CCC2)NC(=O)[C@H](CCC(N)=O)NC(=O)CN(C)C(=O)[C@H](Cc2c[nH]c3ccccc23)NC(=O)[C@H](Cc2ccc(O)cc2)NC(=O)[C@H](CCC(=O)O)NC1=O)[C@@H](C)O [MP-351] (Ac-[Lys(N3)][βAla]LTF[R8]EYW[Sar]Q[Cba][S5]SAA-NH2; staple 6-13) | – | – | 29 (≈ 57.1 µg/mL) | 2.26 | – | > 10 | – | – | – | 193 | > 50 | -3.92
CC(=O)N[C@@H](CCCCN=[N+]=[N-])C(=O)NCCC(=O)NCC(=O)N[C@H](C(=O)N[C@@H](Cc1ccccc1)C(=O)N[C@]1(C)CCCCCCC=CCCC[C@@](C)(C(=O)N[C@@H](CO)C(=O)N[C@@H](C)C(=O)N[C@@H](C)C(N)=O)NC(=O)[C@H](CC2CCC2)NC(=O)[C@H](CCC(N)=O)NC(=O)[C@H](C)NC(=O)[C@H](Cc2c[nH]c3ccccc23)NC(=O)[C@H](Cc2ccc(O)cc2)NC(=O)[C@H](CCC(=O)O)NC1=O)[C@@H](C)O [MP-261] (Ac-[Lys(N3)][βAla]GTF[R8]EYWAQ[Cba][S5]SAA-NH2; staple 6-13) | – | – | 89 (≈ 170 µg/mL) | 2.62 | – | 0.273 | – | – | – | 222 | > 50.6 | 8.826
CC(=O)N[C@@H](CCCCN=[N+]=[N-])C(=O)NCCC(=O)N1CCC[C@H]1C(=O)N[C@H](C(=O)N[C@@H](Cc1ccccc1)C(=O)N[C@]1(C)CCCCCCC=CCCC[C@@](C)(C(=O)N[C@@H](CO)C(=O)N[C@@H](C)C(=O)N[C@@H](C)C(N)=O)NC(=O)[C@H](CC2CCC2)NC(=O)[C@H](CCC(N)=O)NC(=O)[C@H](C)NC(=O)[C@H](Cc2c[nH]c3ccccc23)NC(=O)[C@H](Cc2ccc(O)cc2)NC(=O)[C@H](CCC(=O)O)NC1=O)[C@@H](C)O [MP-259] (Ac-[Lys(N3)][βAla]PTF[R8]EYWAQ[Cba][S5]SAA-NH2; staple 6-13) | – | – | 90.5 (≈ 177 µg/mL) | 2.67 | – | 0.29 | – | – | – | 221 | > 50.6 | 7.47
CC(C)C[C@@H]1NC(=O)[C@H](C)NC(=O)[C@H](Cc2c[nH]c3ccccc23)NC(=O)[C@H](Cc2ccc(O)cc2)NC(=O)[C@H](CCC(=O)O)NC(=O)[C@](C)(NC(=O)[C@H](Cc2ccccc2)NC(=O)[C@H](CO)NC(=O)[C@@H](NC(=O)[C@H](CO)NC(=O)CNC(=O)[C@@H](N)CCCCN=[N+]=[N-])[C@@H](C)O)CCCCCCC=CCCC[C@@](C)(C(N)=O)NC(=O)[C@H](CC(C)C)NC1=O [MP-0179] | – | – | – | 2.57 | – | 0.503 | Poorly Behaved | – | – | 230 | > 50.6 | 3.75
CC(=O)N[C@@H](CCCCN=[N+]=[N-])C(=O)NCCC(=O)NCC(=O)N[C@H](C(=O)N[C@@H](Cc1ccccc1)C(=O)N[C@]1(C)CCCCCCC=CCCC[C@@](C)(C(=O)N[C@@H](CO)C(=O)N[C@@H](C)C(=O)N[C@@H](C)C(N)=O)NC(=O)[C@H](CC2CCC2)NC(=O)[C@H](CCC(N)=O)NC(=O)CNC(=O)[C@H](Cc2c[nH]c3ccccc23)NC(=O)[C@H](Cc2ccc(O)cc2)NC(=O)CNC1=O)[C@@H](C)O [MP-692] (Ac-[Lys(N3)][βAla]GTF[R8]GYWGQ[Cba][S5]SAA-NH2; staple 6-13) | – | – | 2 (≈ 3.66 µg/mL) | 2.73 | – | 1.39 | – | – | – | 200 | > 50.6 | 2.18
